Laboratory results taken from patent US20070161628A1, “Phosphodiesterase inhibitors” (GREENPHARMA, priority 2004, published 2007).
pIC50: −log10 of the molar value.

Assays:
PDE3 (human) = assay: Selectivity towards PDE3; format: biochemical; conditions: PDE1, 3, 5 and 6
Procedure: (§1) D., JACKMAN S. A. and WILKE R. (Brit. J. Pharmacol. 1989, 97, 889-897); (ii, PDE3 and PDE5) Weishaar, R. E., Burrows, S. D., Kobylarz, D. C., Quade, M. M. and Evans, D. B. (Biochem. Pharmacol., 1986, 35, 787-800); (iii, PDE6) Ballard, A. S., Gingell, C. J., Tang, K., Turner, L. A., PRICE, M. E. (J. Urol, 1998, 159, 2164-2171). […] In the case of PDE 5 and 6, the substrate used is ([^3H]cGMP+cGMP) at a concentration of 1 μM for PDE5 and 2 μM for PDE6. A quantitative measurement of the hydrolysis products [^3H]-5′-AMP and [^3H]-5′-GMP was determined by scintillation.

[1] = system: TNF-alpha in peripheral blood mononuclear cells (PBMC); assay: Anti-inflammatory properties: TNF-alpha in LPS-activated PBMC; format: cell-based; conditions: LPS 1 μg/ml, 24 hours, EIA
Procedure: The compounds according to the invention were evaluated for their anti-inflammatory properties on peripheral blood mononuclear cells (PBMC). More particularly, the cells were incubated for 24 hours in the presence of the test molecule, after activation with lipopolysaccharide (LPS) (1 μg/ml) according to the protocol described by Schindler, R., Mancilla, J., Endres, S., Ghorbani, R., Clark, S. C. and Dinarello, C. A. (Blood, 1990, 75, 40-47). After incubation, the concentrations of TNF-alpha were measured in the culture supernatants by the EIA method.

trabecular bone = assay: Microarchitecture and study of bone markers in mice; format: in vivo, C57BL6 mice; conditions: 5 mg/kg per day, 5 days per week, 4 weeks, subcutaneous; for effect on the bone quantity and microarchitecture (BV/TV, Tb.N): distal metaphysis of the femur, microQCT
Procedure: The object is to test the effect of the components described above on the microarchitecture of the trabecular bone. […] Results on the Bone Microarchitecture • No significant difference between the groups at the start of the treatment. No significant difference between the control (base) group and the Sham group. All the significant differences are represented by an *, *p<0.05; **p<0.01 • Several parameters (10) are recorded and analysed, such as: • BV/TV: represents the bone volume of the trabecular bone to the tissue volume, • Tb.N: trabecular number. The trabecular bone volume (BV/TV, %) and the trabecular number (Tb.N) are calculated via the “Mean Intercept Length (MIL)” method. The trabecular thickness (Tb.Th) and the trabecular space (Tb.Sp) are calculated via the method described by Hildebrand & Ruegsegger (Journal of Microscopy. 185:67-75, 1997). • BV/TV: FIG. 5 • Tb.N: FIG. 6 CONCLUSION

[2] = system: human type 4 phosphodiesterase (source: U-937 cells); assay: Inhibition of PDE4
Procedure: A quantitative measurement of the hydrolysis product [^3H]-5′-AMP was determined by scintillation.

PDE1 (bovine) = assay: Selectivity towards PDE1; format: biochemical; conditions: substrate [3H]cAMP+cAMP 1 μM, 30 minutes at 30° C.
Procedure: as §1

[3] = system: primary neuron cultures (foetal rat cerebral cortex); assay: Stimulation of neurotrophic factors: primary neuron cultures observed with and without compound; format: cell-based
Procedure: The neurons are cultured in neurobasal medium using foetal rat cerebral cortex according to the procedure described in Example 1 and are photographed without staining 17 days after culturing. Culture A is a control culture without compound. […] Compounds according to the invention were evaluated for their neurotrophic properties. The idea is thus to observe the behaviour of a neuron cell culture in the absence and presence of such molecules. The molecule used in this example is S-tofisopam. The adult animals are coupled and the female rats are separated out the next day. After 16 days, a caesarean section is performed on the gestating female rats and the foetuses are placed in a Petri dish 100 mm in diameter. They are transferred to a laminar flow fume cupboard, in sterile medium. The foetuses are individually isolated and are dissected under a binocular magnifying glass in sterile medium. The cerebral cortex is isolated and placed in a tube containing antibiotic-free neurobasal medium. The tissue is dissociated by suction-ejection, into individual cells in a volume of 2 ml. The cell suspension is then delicately deposited on 2-ml of inactivated foetal calf serum. The tube is centrifuged at low gravity (800 g) for 5 minutes at room temperature. The cell pellet is recovered and the cells are resuspended in complete neurobasal medium. The cells are counted using a Mallassez haematimeter in the presence of trypan blue to determine the cell viability. Culturing is performed by placing 800 000 cells in Petri dishes 60 mm in diameter containing complete neurobasal medium, preheated and equilibrated in a CO2 incubator. These dishes were lined beforehand with a polylysine coat the day before the manipulation. The incubator temperature is set at 37° C., the CO2 level at 5% and the humidity is saturating. The Petri dishes containing the cells are then placed in the incubator. […] These cultures constitute primary neuron cultures. The neuron cultures as prepared above serve as controls. Five dishes are used in order to have a statistical approach. In the other dishes, the test molecule is added at different concentrations: 0.1 μmol/l, 1 μmol/l and 10 μmol/l. In each case, the manipulation is repeated 5 times. The neurons are examined by inverted phase-contrast microscope (Zeiss Axiovert 135) every day after inoculation. The neurons are photographed at various magnifications using a photography camera and are compared between series.

[4] = target: T1, human type 2 phosphodiesterase (source: U-937 cells) (Homo sapiens, UniProt O00408); assay: Inhibition of PDE2; format: biochemical; conditions: substrate 1 μM, 30 minutes at 30° C.
T1 construct: human type 2 phosphodiesterase (source: U-937 cells); endogenous in cells; host or cells: U-937 cells
T1 sequence (O00408 whole entry): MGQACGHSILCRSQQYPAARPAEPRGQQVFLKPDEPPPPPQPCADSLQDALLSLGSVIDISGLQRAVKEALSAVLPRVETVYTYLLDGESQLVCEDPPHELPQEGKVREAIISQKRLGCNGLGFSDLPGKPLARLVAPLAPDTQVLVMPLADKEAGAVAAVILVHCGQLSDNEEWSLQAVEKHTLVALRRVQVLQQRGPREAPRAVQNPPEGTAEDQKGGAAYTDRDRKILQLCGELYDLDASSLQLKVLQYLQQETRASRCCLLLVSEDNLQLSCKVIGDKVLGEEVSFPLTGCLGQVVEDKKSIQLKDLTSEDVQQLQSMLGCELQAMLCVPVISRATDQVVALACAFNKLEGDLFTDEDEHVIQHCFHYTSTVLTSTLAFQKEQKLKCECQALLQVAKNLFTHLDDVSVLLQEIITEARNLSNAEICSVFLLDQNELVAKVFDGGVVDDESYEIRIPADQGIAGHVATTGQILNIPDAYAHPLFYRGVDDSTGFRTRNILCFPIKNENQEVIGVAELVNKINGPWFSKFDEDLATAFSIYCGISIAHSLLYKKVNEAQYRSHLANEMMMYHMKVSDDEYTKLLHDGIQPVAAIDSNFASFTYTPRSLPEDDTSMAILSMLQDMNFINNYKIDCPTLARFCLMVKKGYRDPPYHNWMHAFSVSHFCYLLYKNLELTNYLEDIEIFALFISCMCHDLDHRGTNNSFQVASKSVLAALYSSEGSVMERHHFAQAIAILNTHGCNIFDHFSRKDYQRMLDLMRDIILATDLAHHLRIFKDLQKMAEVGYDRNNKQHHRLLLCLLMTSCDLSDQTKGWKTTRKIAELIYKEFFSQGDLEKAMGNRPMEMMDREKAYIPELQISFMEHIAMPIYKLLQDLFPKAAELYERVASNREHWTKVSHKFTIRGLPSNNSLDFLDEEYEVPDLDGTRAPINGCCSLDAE
Procedure: This novel family of compounds was tested as inhibitor of human type 2 phosphodiesterase (source: U-937 cells) by following the process described by Torphy, T. J., Zhou, H. L. and Cieslinski, L. B. (J. Pharmacol. Exp. Ther., 1992, 263, 1195-1205). […] A quantitative measurement of the hydrolysis product [^3H]-5′-AMP was determined by scintillation.

[5] = system: primary cultures of rat motor neuron embryonic cells; assay: Neuroprotective effect, apoptosis induced by suppression of BDNF; format: cell-based; conditions: 1 μM; apoptosis induced by BDNF deprivation
Procedure: This test was performed according to the protocol described by Estevez A. G. et al. (J. Neurosci. 1998, 18(3), 923-931). Briefly, when primary cultures of rat motor neuron embryonic cells are deprived of “brain-derived neurotrophic factor” (BDNF), an induction of neuronal “nitric oxide synthase” (NOS) was observed, resulting in the gradual death of the neurons by apoptosis: between 18 and 24 hours after making the biological preparation, more than 60% of the neurons die. In this model of induced apoptosis, the compound described in Example 1 (S-tofisopam and analogues) protects the neurons by more than 50% at a concentration of 1 μM.

## CCOc1cc2c(cc1OCC)[C@H](CC)C(C)=NN=C2c1ccc(OC)c(OC)c1 [S-etofisopam, 5S-(3,4-dimethoxyphenyl)-5-ethyl-4-methyl-7,8-diethoxy-5H-2,3-benzodiazepine]
PDE3 (human)
  inhibition of the other PDEs, especially PDE3, compared with PDE4 or PDE2: more weakly
[1]
  pIC50: 7.00 to 9.00
Trabecular bone
  effect on the bone quantity and microarchitecture (BV/TV, Tb.N): Identity results
[2]; read-out: IC50 PDE4, substrate [3H]cAMP+cAMP 1 μM, 30 minutes at 30° C.
  pIC50: 7.70

## COCc1nc2c([nH]1)c(=O)n(C)c(=O)n2CC(C)C [8-methoxy-IBMX]
PDE1 (bovine)
  pIC50: 5.54

## CCOc1cc2c(cc1OCC)C(CC)C(C)=NN=C2c1ccc(OC)c(OC)c1 (racemic)
other
  melting point: 91 to 93 °C

## C[C@@H]1C[C@H]2[C@@H]3CCC4=CC(=O)C=C[C@]4(C)[C@@]3(F)[C@@H](O)C[C@]2(C)[C@@]1(O)C(=O)CO [dexamethasone, reference compound]
[1]
  pIC50: 5.34

## CC[C@@H]1C(C)=NN=C(c2ccc(OC)c(OC)c2)c2cc(OC)c(OC)cc21 [S-tofisopam, (5S)-1-(3,4-dimethoxyphenyl)-5-ethyl-7,8-dimethoxy-4-methyl-5H-2,3-benzodiazepine]
[3]; astrocyte culture supernatant added, compared with control
  density of the neurites with added astrocyte culture supernatant: increasing the density of the neurites
[3]; control: all neurons disappeared after 15 days
  cell survival: time treated neurons remain alive after application: almost four weeks
[3]; overall conclusion
  neurotrophic and neuroprotective role in neuron culture: not only a neurotrophic role but also a neuroprotective role
[3]; primary neuron culture, test concentrations 0.1, 1 and 10 μmol/l (FIG. 1: 50 μM added on day 8)
  growth of the neurites versus control: greater growth of the neurites than in the cells used as control
[4]
  pIC50: 6.30
PDE3 (human)
  inhibition of the other PDEs, especially PDE3, compared with PDE4 or PDE2: more weakly
[1]
  pIC50: 7.00 to 9.00
[5]
  protection of the neurons: more than 50%
Trabecular bone
  markers and cellular activity: effect on bone formation and bone resorption: uncoupling effect: anabolic on bone formation, inhibitory on bone resorption
  effect on the bone quantity and microarchitecture (BV/TV, Tb.N): positive effect
[2]; S-tofisopam versus R-tofisopam
  inhibition on PDE4 relative to R-tofisopam: ten times higher

## CCOc1cc2c(cc1OCC)[C@@H](CC)C(C)=NN=C2c1ccc(OC)c(OC)c1 [R-etofisopam, (R) 1-(3,4-dimethoxy-phenyl)-4-methyl-5-ethyl-7,8-diethoxy-5H-2,3-benzodiazepine]
[1]
  pIC50: 7.00 to 9.00

## CCCCCC[C@@H]([C@@H](C)O)n1cnc2c(N)ncnc21 (racemic) [EHNA, reference compound]
[4]
  pIC50: 5.68
